Experiments:
AMBEL (Ragweed, Common) = assay: Preemergence herbicidal evaluation; assay type: in vivo, Ambrosia artemisifolia; details: rated 4-5 weeks after treatment; for AMBEL rating: preemergence, 0-9 scale
Procedure, shortened: (§1)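 In this greenhouse assay, monocot and dicot seeds are planted in soil and treated prior to emergence with an aqueous acetone spray (about 0.0156-0.500 kg/ha). Plants are assessed visually against control on a 0-9 scale after 4-5 weeks.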

MOOVA (Monochoria) = assay: Postemergence weed control under flooded paddy conditions; assay type: in vivo, Monochoria vaginalis; details: postemergence weeds
Procedure, shortened: (§2)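 Weeds 3 to 5 cm tall and rice seedlings at the 1.5 to 2.5 leaf stage were flooded, with water held 1.5 to 3 cm above the soil. Compounds in 50/50 v/v aqueous/acetone went into the flood water at about 0.0313 to 0.500 kg/ha. Visual 0-9 ratings versus control were made 3 to 4 weeks later.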

ABUTH (Velvetleaf) = assay: Preemergence herbicidal evaluation; assay type: in vivo, Abutilon theophrasti; details: rated 4-5 weeks after treatment; for ABUTH rating: preemergence, 0-9 scale
Procedure, shortened: as §1

[1] = system: SAGPY (Arrowhead (Pygmaea)); assay: Postemergence weed control under flooded paddy conditions; assay type: in vivo, Sagittaria pygmaea; details: postemergence weeds
Procedure, shortened: as §2

ZEAMX (Corn, Field) = assay: Postemergence herbicidal evaluation; assay type: in vivo, Zea mays; details: for ZEAMX herbicidal rating: postemergence
Procedure, shortened: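 Herbicidal effect was judged by eye on a 0–9 scale covering stand, vigor, deformity, size and chlorosis, compared with controls, four to five weeks after seedlings about two weeks old were sprayed (40 psi, ~0.0156–0.500 kg/ha).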

[2] = system: GLXMAW (Soybean, Williams); assay: Preemergence herbicidal evaluation; assay type: in vivo, Glycine max, (L.) Merr. cv Williams; details: rated 4-5 weeks after treatment; for GLXMAW rating: preemergence, 0-9 scale
Procedure, shortened: as §1

[3] = Rate 0.0313 kg/ha, rated 3 to 4 weeks after treatment
[4] = Rate 0.0625 kg/ha, rated 3 to 4 weeks after treatment
[5] = Rate 0.1250 kg/ha, rated 3 to 4 weeks after treatment
[6] = Rate 0.2500 kg/ha, rated 3 to 4 weeks after treatment
[7] = rate 0.0313 kg/ha, 3-4 weeks after treatment
[8] = rate 0.0625 kg/ha, 3-4 weeks after treatment
[9] = rate 0.1250 kg/ha, 3-4 weeks after treatment
[10] = rate 0.2500 kg/ha, 3-4 weeks after treatment

C=CCN1C(=O)C(CC(=O)NOC)SC1=Nc1cc(-n2c(=O)cc(C(F)(F)F)n(C)c2=O)c(F)cc1Cl (centres unmarked) [Compound 85]
8.5: ZEAMX herbicidal rating (ZEAMX (Corn, Field); rate 0.1250 kg/ha)
7.5: ZEAMX herbicidal rating (ZEAMX (Corn, Field); rate 0.0625 kg/ha)
3.0: AMBEL rating (AMBEL (Ragweed, Common); 0.0625 kg/ha) | Herbicidal rating SAGPY [1, 3] | Herbicidal rating SAGPY [1, 4]
6.5: ZEAMX herbicidal rating (ZEAMX (Corn, Field); rate 0.0313 kg/ha)
0.0: AMBEL rating (AMBEL (Ragweed, Common); 0.0156 kg/ha) | AMBEL rating (AMBEL (Ragweed, Common); 0.0313 kg/ha) | ABUTH rating (ABUTH (Velvetleaf); 0.0156 kg/ha) | GLXMAW rating ([2]; 0.0156 kg/ha) | GLXMAW rating ([2]; 0.0313 kg/ha) | GLXMAW rating ([2]; 0.0625 kg/ha)
9.0: AMBEL rating (AMBEL (Ragweed, Common); 0.2500 kg/ha) | AMBEL rating (AMBEL (Ragweed, Common); 0.5000 kg/ha) | Herbicidal rating MOOVA (MOOVA (Monochoria); [3]) | Herbicidal rating MOOVA (MOOVA (Monochoria); [4]) | Herbicidal rating MOOVA (MOOVA (Monochoria); [5]) | Herbicidal rating MOOVA (MOOVA (Monochoria); [6]) | ABUTH rating (ABUTH (Velvetleaf); 0.0313 kg/ha) | ABUTH rating (ABUTH (Velvetleaf); 0.0625 kg/ha) | ABUTH rating (ABUTH (Velvetleaf); 0.1250 kg/ha) | ABUTH rating (ABUTH (Velvetleaf); 0.2500 kg/ha) | ABUTH rating (ABUTH (Velvetleaf); 0.5000 kg/ha) | Herbicidal rating SAGPY [1, 5] | Herbicidal rating SAGPY [1, 6] | GLXMAW rating ([2]; 0.5000 kg/ha)
2.0: GLXMAW rating ([2]; 0.1250 kg/ha) | GLXMAW rating ([2]; 0.2500 kg/ha)
4.0: ZEAMX herbicidal rating (ZEAMX (Corn, Field); rate 0.0156 kg/ha)
7.0: AMBEL rating (AMBEL (Ragweed, Common); 0.1250 kg/ha)

CCOC(=O)CN1C(=O)C(Cc2ccccc2OC(C)C(=O)OC)SC1=Nc1cc(-n2c(=O)cc(C(F)(F)F)n(C)c2=O)c(F)cc1Cl (centres unmarked) [Compound 50, 2-{{2-Chloro-5-[3,6-dihydro-3-methyl-2,6-dioxo-4-(trifluoromethyl)-1(2H)-pyrimidinyl]-4-fluoro-phenyl}imino}-5-(o-hydroxybenzyl)-4-oxo-3-thiazolidineacetic acid, ethyl ester, ester with methyl lactate]
5.5: Postemergence herbicidal rating ZEAMX (ZEAMX (Corn, Field); Rate 0.0625 kg/ha)
0.0: Preemergence herbicidal rating AMBEL (AMBEL (Ragweed, Common); rate 0.0625 kg/ha) | Preemergence herbicidal rating AMBEL (AMBEL (Ragweed, Common); rate 0.1250 kg/ha) | Preemergence herbicidal rating AMBEL (AMBEL (Ragweed, Common); rate 0.2500 kg/ha) | Herbicidal rating MOOVA (MOOVA (Monochoria); [7]) | Herbicidal rating MOOVA (MOOVA (Monochoria); [8]) | Preemergence herbicidal rating GLXMAW ([2]; rate 0.0625 kg/ha) | Preemergence herbicidal rating GLXMAW ([2]; rate 0.1250 kg/ha) | Preemergence herbicidal rating GLXMAW ([2]; rate 0.2500 kg/ha)
9.0: Preemergence herbicidal rating ABUTH (ABUTH (Velvetleaf); rate 0.0625 kg/ha) | Preemergence herbicidal rating ABUTH (ABUTH (Velvetleaf); rate 0.1250 kg/ha) | Preemergence herbicidal rating ABUTH (ABUTH (Velvetleaf); rate 0.2500 kg/ha)
2.0: Herbicidal rating SAGPY [1, 7] | Herbicidal rating SAGPY [1, 8]
5.0: Postemergence herbicidal rating ZEAMX (ZEAMX (Corn, Field); Rate 0.0156 kg/ha) | Postemergence herbicidal rating ZEAMX (ZEAMX (Corn, Field); Rate 0.0313 kg/ha)
3.0: Herbicidal rating MOOVA (MOOVA (Monochoria); [9]) | Herbicidal rating SAGPY [1, 9] | Herbicidal rating SAGPY [1, 10]
7.0: Herbicidal rating MOOVA (MOOVA (Monochoria); [10])

C=CCN1C(=O)C(CC(=O)Nc2ccccc2)SC1=Nc1cc(-n2c(=O)cc(C(F)(F)F)n(C)c2=O)c(F)cc1Cl (centres unmarked) [Compound 44, 3-Allyl-2-{{2-chloro-5-[3,6-dihydro-3-methyl-2,6-dioxo-4-(trifluoromethyl)-1(2H)-pyrimidinyl]-4-fluorophenyl}imino}-4-oxo-5-thiazolidineacetanilide]
0.0: Preemergence herbicidal rating AMBEL (AMBEL (Ragweed, Common); rate 0.0156 kg/ha) | Preemergence herbicidal rating AMBEL (AMBEL (Ragweed, Common); rate 0.0313 kg/ha) | Preemergence herbicidal rating AMBEL (AMBEL (Ragweed, Common); rate 0.0625 kg/ha) | Preemergence herbicidal rating AMBEL (AMBEL (Ragweed, Common); rate 0.1250 kg/ha) | Preemergence herbicidal rating ABUTH (ABUTH (Velvetleaf); rate 0.0156 kg/ha) | Preemergence herbicidal rating ABUTH (ABUTH (Velvetleaf); rate 0.0313 kg/ha) | Preemergence herbicidal rating ABUTH (ABUTH (Velvetleaf); rate 0.0625 kg/ha) | Preemergence herbicidal rating GLXMAW ([2]; rate 0.0156 kg/ha) | Preemergence herbicidal rating GLXMAW ([2]; rate 0.0313 kg/ha) | Preemergence herbicidal rating GLXMAW ([2]; rate 0.0625 kg/ha) | Preemergence herbicidal rating GLXMAW ([2]; rate 0.1250 kg/ha) | Preemergence herbicidal rating GLXMAW ([2]; rate 0.2500 kg/ha) | Preemergence herbicidal rating GLXMAW ([2]; rate 0.5000 kg/ha)
2.0: Preemergence herbicidal rating AMBEL (AMBEL (Ragweed, Common); rate 0.2500 kg/ha)
9.0: Herbicidal rating MOOVA (MOOVA (Monochoria); [10]) | Preemergence herbicidal rating ABUTH (ABUTH (Velvetleaf); rate 0.1250 kg/ha) | Preemergence herbicidal rating ABUTH (ABUTH (Velvetleaf); rate 0.2500 kg/ha) | Preemergence herbicidal rating ABUTH (ABUTH (Velvetleaf); rate 0.5000 kg/ha)
5.0: Postemergence herbicidal rating ZEAMX (ZEAMX (Corn, Field); Rate 0.0156 kg/ha) | Postemergence herbicidal rating ZEAMX (ZEAMX (Corn, Field); Rate 0.0313 kg/ha) | Postemergence herbicidal rating ZEAMX (ZEAMX (Corn, Field); Rate 0.0625 kg/ha) | Postemergence herbicidal rating ZEAMX (ZEAMX (Corn, Field); Rate 0.1250 kg/ha)
7.0: Herbicidal rating MOOVA (MOOVA (Monochoria); [9])
4.0: Preemergence herbicidal rating AMBEL (AMBEL (Ragweed, Common); rate 0.5000 kg/ha) | Herbicidal rating MOOVA (MOOVA (Monochoria); [7]) | Herbicidal rating MOOVA (MOOVA (Monochoria); [8])

CCOC(=O)CN1C(=O)C(CC(=O)OCCF)SC1=Nc1cc(-n2c(=O)cc(C(F)(F)F)n(C)c2=O)c(F)cc1Cl (centres unmarked) [Compound 82, 2-{{2-Chloro-5-[3,6-dihydro-3-methyl-2,6-dioxo-4-(trifluoromethyl)-1(2H)-pyrimidinyl]-4-fluoro-phenyl}imino}-4-oxo-3,5-thiazolidinediacetic acid, 3-ethyl 2-fluoroethyl ester]
3.0: AMBEL rating (AMBEL (Ragweed, Common); 0.0625 kg/ha) | ABUTH rating (ABUTH (Velvetleaf); 0.0156 kg/ha)
4.0: Herbicidal rating SAGPY [1, 3] | Herbicidal rating SAGPY [1, 4] | Herbicidal rating SAGPY [1, 5]
2.0: AMBEL rating (AMBEL (Ragweed, Common); 0.0313 kg/ha)
7.0: Herbicidal rating SAGPY [1, 6]
9.0: AMBEL rating (AMBEL (Ragweed, Common); 0.1250 kg/ha) | AMBEL rating (AMBEL (Ragweed, Common); 0.2500 kg/ha) | ABUTH rating (ABUTH (Velvetleaf); 0.0313 kg/ha) | ABUTH rating (ABUTH (Velvetleaf); 0.0625 kg/ha) | ABUTH rating (ABUTH (Velvetleaf); 0.1250 kg/ha) | ABUTH rating (ABUTH (Velvetleaf); 0.2500 kg/ha) | ZEAMX herbicidal rating (ZEAMX (Corn, Field); rate 0.0630 kg/ha)
8.5: ZEAMX herbicidal rating (ZEAMX (Corn, Field); rate 0.0158 kg/ha) | ZEAMX herbicidal rating (ZEAMX (Corn, Field); rate 0.0315 kg/ha)
0.0: AMBEL rating (AMBEL (Ragweed, Common); 0.0156 kg/ha) | GLXMAW rating ([2]; 0.0156 kg/ha) | GLXMAW rating ([2]; 0.0313 kg/ha) | GLXMAW rating ([2]; 0.0625 kg/ha) | GLXMAW rating ([2]; 0.1250 kg/ha)
5.0: GLXMAW rating ([2]; 0.2500 kg/ha)

CN1C(=O)C(CC(=O)NS(C)(=O)=O)SC1=Nc1cc(-n2c(=O)cc(C(F)(F)F)n(C)c2=O)c(F)cc1Cl (centres unmarked) [Compound 97, 2-{{2-Chloro-5-[3,6-dihydro-3-methyl-2,6-dioxo-4-(trifluoromethyl)-1(2H)-pyrimidinyl]-4-fluorophenyl}imino}-3-methyl-N-(methylsulfonyl)-4-oxo-5-thiazolidineacetamide]
0.0: AMBEL rating (AMBEL (Ragweed, Common); 0.1250 kg/ha) | GLXMAW rating ([2]; 0.1250 kg/ha) | GLXMAW rating ([2]; 0.2500 kg/ha)
3.5: ZEAMX herbicidal rating (ZEAMX (Corn, Field); rate 0.0156 kg/ha)
4.0: AMBEL rating (AMBEL (Ragweed, Common); 0.2500 kg/ha) | AMBEL rating (AMBEL (Ragweed, Common); 0.5000 kg/ha) | ABUTH rating (ABUTH (Velvetleaf); 0.1250 kg/ha) | ZEAMX herbicidal rating (ZEAMX (Corn, Field); rate 0.0313 kg/ha) | ZEAMX herbicidal rating (ZEAMX (Corn, Field); rate 0.0625 kg/ha)
5.0: ZEAMX herbicidal rating (ZEAMX (Corn, Field); rate 0.1250 kg/ha)
9.0: Herbicidal rating MOOVA (MOOVA (Monochoria); [3]) | Herbicidal rating MOOVA (MOOVA (Monochoria); [4]) | Herbicidal rating MOOVA (MOOVA (Monochoria); [5]) | Herbicidal rating MOOVA (MOOVA (Monochoria); [6]) | ABUTH rating (ABUTH (Velvetleaf); 0.2500 kg/ha) | ABUTH rating (ABUTH (Velvetleaf); 0.5000 kg/ha)
3.0: GLXMAW rating ([2]; 0.5000 kg/ha)

CCOC(=O)CN1CCSC1=Nc1cc(-n2nc(C)n(C(F)F)c2=O)c(F)cc1Cl [Compound 36]
3.0: Herbicidal rating SAGPY [1, 9]
4.5: Postemergence herbicidal rating ZEAMX (ZEAMX (Corn, Field); Rate 0.0158 kg/ha)
9.0: Preemergence herbicidal rating AMBEL (AMBEL (Ragweed, Common); rate 0.2500 kg/ha) | Preemergence herbicidal rating ABUTH (ABUTH (Velvetleaf); rate 0.0625 kg/ha) | Preemergence herbicidal rating ABUTH (ABUTH (Velvetleaf); rate 0.1250 kg/ha) | Preemergence herbicidal rating ABUTH (ABUTH (Velvetleaf); rate 0.2500 kg/ha) | Herbicidal rating SAGPY [1, 10]
0.0: Preemergence herbicidal rating AMBEL (AMBEL (Ragweed, Common); rate 0.0625 kg/ha) | Preemergence herbicidal rating AMBEL (AMBEL (Ragweed, Common); rate 0.1250 kg/ha) | Herbicidal rating SAGPY [1, 7] | Herbicidal rating SAGPY [1, 8] | Preemergence herbicidal rating GLXMAW ([2]; rate 0.0625 kg/ha) | Preemergence herbicidal rating GLXMAW ([2]; rate 0.1250 kg/ha) | Preemergence herbicidal rating GLXMAW ([2]; rate 0.2500 kg/ha)
7.5: Postemergence herbicidal rating ZEAMX (ZEAMX (Corn, Field); Rate 0.0630 kg/ha)
6.0: Postemergence herbicidal rating ZEAMX (ZEAMX (Corn, Field); Rate 0.0315 kg/ha)

Reference: US20020137929A1, “1 - (3-heterocyclylphenyl) isothiourea, -isourea, -guanidine and -amidine herbicidal agents” (Intellectual Property Department, BASF Aktiengesellschaft, priority 1998, published 2002)
